Experimental data as given in patent publication US5242938A, “Derivatives of virginiamycin M1” (Merck & Co., Inc., priority 1992, dated 1993).
Converted amounts (≈) assume the structure as drawn. Like-named read-outs stand apart in the source and are kept apart here.

Tests used:
[1] = test system: Micrococcus luteus (Mb 1101, ATCC 9341); test: Agar diffusion disc assay, Micr 1101; format: cell-based; settings: for MIC: read-out: Agar Diffusion MIC versus Micrococcus luteus
Method: (§1) Cultures employed in evaluating antimicrobial activity included plant pathogens, human and animal opportunistic pathogens and selected laboratory strains having specific-antibiotic sensitivities or chromosomal or R-plasmid-mediated resistances. […] The agar diffusion MIC's were determined using the method described by Barry in Anitbiotics in Laboratory Medicine, 2nd Ed., Ed. V. Lorian, pp. 1-63, William & Wilkins, Baltimore, 1986. Each test compound was dissolved in methanol to a concentration of 1 mg/ml. Serial dilutions of these compounds were also made to determine an agar diffusion MIC. 20 μl of each dilution was pipetted on to 6 mm paper discs, air dried and placed onto the surface of an agar plate seeded with the appropriate bacteria (~10^6 cfu). Seeded agar plates were incubated overnight (~18 hours) at 25° C. Zone sizes were measured to the nearest mm. Each compound was tested in triplicate and the results shown represent the mean.

[2] = target: T1, CCK-B (guinea pig cortex) (Cavia porcellus, UniProt H0VZC5); test: [3H]L-365,260 CCK-B selective antagonist ligand binding, brain membranes; settings: for IC50: read-out: CCK binding inhibition - IC50, [3H]L-365,260
T1 construct: guinea pig cortical preparations; from tissue; host or cells: guinea pig brain cortex membranes
T1 sequence (H0VZC5 1-426): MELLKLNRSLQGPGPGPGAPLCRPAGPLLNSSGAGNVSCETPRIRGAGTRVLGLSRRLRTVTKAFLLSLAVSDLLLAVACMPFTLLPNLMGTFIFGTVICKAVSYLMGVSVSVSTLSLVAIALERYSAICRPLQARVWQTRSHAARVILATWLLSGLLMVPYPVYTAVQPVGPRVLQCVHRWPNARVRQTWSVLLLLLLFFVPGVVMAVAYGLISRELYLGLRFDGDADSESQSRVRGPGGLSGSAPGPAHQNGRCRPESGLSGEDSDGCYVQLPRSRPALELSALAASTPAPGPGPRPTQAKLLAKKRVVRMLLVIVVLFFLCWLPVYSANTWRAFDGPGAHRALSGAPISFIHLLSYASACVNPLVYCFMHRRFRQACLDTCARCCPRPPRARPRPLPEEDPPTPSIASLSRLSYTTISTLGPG
Method: (§2) The resulting supernatant was re-spun at 20,000×g for 20 minutes. […] Incubations were for 40 minutes at 4° C. and were terminated by filtration and washing with ice cold 100 mM saline. […] Incubations were for 30 minutes at room temperature and were terminated by filtration over GF/C filters and washing with 100 mM NaCl.

[3] = test system: Staphylococcus aureus (Mb 108, ATCC 6538P); test: Agar diffusion disc assay, Sta 108; format: cell-based; settings: Staphylococcus aureus, ATCC6538P, 18 h
Method: as §1

CCK-A (rat pancreas) [4] = target: T2, CCK-A (rat pancreas) (Rattus norvegicus, UniProt P30551); test: [3H]L-364,718 CCK-A selective antagonist ligand binding, pancreas; settings: read-out: CCK binding inhibition - IC50, [3H]L-364,718
T2 construct: from tissue; host or cells: rat pancreas
T2 sequence (P30551 1-444): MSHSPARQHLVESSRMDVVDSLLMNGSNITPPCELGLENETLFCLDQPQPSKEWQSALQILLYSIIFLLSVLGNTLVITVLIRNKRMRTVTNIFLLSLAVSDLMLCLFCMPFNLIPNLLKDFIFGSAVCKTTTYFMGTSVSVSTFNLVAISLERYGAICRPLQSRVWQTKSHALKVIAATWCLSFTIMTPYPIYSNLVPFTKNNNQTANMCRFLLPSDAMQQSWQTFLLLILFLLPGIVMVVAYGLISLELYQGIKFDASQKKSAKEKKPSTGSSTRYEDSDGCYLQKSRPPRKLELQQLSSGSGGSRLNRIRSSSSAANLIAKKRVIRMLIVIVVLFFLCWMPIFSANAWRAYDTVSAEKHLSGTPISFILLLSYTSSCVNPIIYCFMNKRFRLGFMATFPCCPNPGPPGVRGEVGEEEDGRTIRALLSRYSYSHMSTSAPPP
Method: as §2

[5] = test system: Bacillus subtilis (Mb 964, ATCC 6633); test: Agar diffusion disc assay, Subt 964; format: cell-based; settings: Bacillus subtilis, ATCC6633, 18 h, read-out: Inhibition zone diameter, Subt 964
Method: as §1

[6] = test system: Escherichia coli (Mb 1418); test: Agar diffusion disc assay, Coli 1418; format: cell-based; settings: @ 20 g/disc
Method: as §1

[7] = test system: En terobacter aergenes (Mb 835); test: Agar diffusion disc assay, Ent 835; format: cell-based; settings: 18 h, read-out: Inhibition zone diameter, Ent 835
Method: as §1

CCK-A (rat pancreas) [8] = target: T2, CCK-A (rat pancreas); test: [125I]BHCCK-8 radioligand binding, rat pancreatic preparation; settings: read-out: CCK binding inhibition - IC50, [125I]BHCCK
Method: as §2

[9] = target: T1, CCK-B (guinea pig cortex); test: [125I]BHCCK-8 radioligand binding, guinea pig cortical preparation; settings: read-out: CCK binding inhibition - IC50, [125I]BHCCK
Method: as §2

[10] = test system: Salmonella gallinarum (Mb 1287); test: Agar diffusion disc assay, Salm 1287; format: cell-based; settings: Salmonella enterica, GALLINARUM, 18 h, read-out: Inhibition zone diameter, Salm 1287
Method: as §1

Bacillus sp. (Mb 633) = test: Agar diffusion disc assay, Baci 633; format: cell-based; settings: @ 20 g/disc
Method: as §1

[11] = test system: Streptococcus agalactiae (Mb 2875); test: Agar diffusion disc assay, Str 2875; format: cell-based; settings: Streptococcus agalactiae, 18 h
Method: as §1

[12] = test system: Corynebacterium pseudodiphtheriticum (Mb 261, ATCC 9742); test: Agar diffusion disc assay, Cory 261; format: cell-based; settings: Corynebacterium pseudodiphtheriticum, ATCC9742, 18 h
Method: as §1

[13] = test system: Staphylococcus aureus (Mb 2983); test: Agar diffusion disc assay, Sta 2983; format: cell-based; settings: Staphylococcus aureus, 18 h
Method: as §1

[14] = test system: Streptococcus faecium (Mb 2820); test: Agar diffusion disc assay, Str 2820; format: cell-based; settings: Enterococcus faecium, 18 h
Method: as §1

[15] = test system: Pseudomonas stutzeri (Mb 1231, ATCC 11607); test: Agar diffusion disc assay, Pseu 1231; format: cell-based; settings: @ 20 g/disc
Method: as §1

CC1=C\[C@@H](O)CC(O)Cc2nc(co2)C(=O)N2CCC=C2C(=O)O[C@H](C(C)C)[C@H](C)/C=C/C(=O)NC\C=C\1 (single isomer, unassigned) [Example 14A]
zone of inhibition at 20 µg/disc ([1]; Micrococcus luteus, ATCC9341, 18 h, read-out: Inhibition zone diameter, Micr 1101, @ 20 g/disc): 35 mm | zone of inhibition at 1.25 µg/disc ([1]; Micrococcus luteus, ATCC9341, 18 h, read-out: Mean of triplicate zone size versus Micrococcus luteus, 1.25 μg/disc, 25° C., ~18 hours): 25 mm | zone of inhibition at 2.5 µg/disc ([1]; Micrococcus luteus, ATCC9341, 18 h, read-out: Mean of triplicate zone size versus Micrococcus luteus, 2.50 μg/disc, 25° C., ~18 hours): 27 mm | zone of inhibition at 5 µg/disc ([1]; Micrococcus luteus, ATCC9341, 18 h, read-out: Mean of triplicate zone size versus Micrococcus luteus, 5.00 μg/disc, 25° C., ~18 hours): 29 mm | zone of inhibition at 20 µg/disc ([1]; Micrococcus luteus, ATCC9341, 18 h, read-out: Mean of triplicate zone size versus Micrococcus luteus, 20.0 μg/disc, 25° C., ~18 hours): 33 mm | MIC [1]: 0.08 µM (≈ 0.0422 µg/mL) | A.R. = agonist ratio = IC50([3H]L365,260)/IC50([125I]CCK) [2]: 0.1 | IC50 [2]: 0.14 µM | zone of inhibition at 20 µg/disc ([3]; read-out: Inhibition zone diameter, Sta 108, @ 20 g/disc): 27 mm | IC50 (CCK-A (rat pancreas) [4]): > 3 µM | zone of inhibition at 20 µg/disc [5]: 0 mm | Inhibition zone diameter, Coli 1418 [6]: 8 mm | zone of inhibition at 20 µg/disc [7]: 0 mm | IC50 (CCK-A (rat pancreas) [8]): > 3 µM | IC50 [9]: 2.1 µM | zone of inhibition at 20 µg/disc [10]: 0 mm | Inhibition zone diameter, Baci 633 (Bacillus sp. (Mb 633)): 9 mm | zone of inhibition at 20 µg/disc ([11]; read-out: Inhibition zone diameter, Str 2875, @ 20 g/disc): 30 mm | zone of inhibition at 20 µg/disc ([12]; read-out: Inhibition zone diameter, Cory 261, @ 20 g/disc): 30 mm | zone of inhibition at 20 µg/disc ([13]; read-out: Inhibition zone diameter, Sta 2983, @ 20 g/disc): 22 mm | zone of inhibition at 20 µg/disc ([14]; read-out: Inhibition zone diameter, Str 2820, @ 20 g/disc): 16 mm | Inhibition zone diameter, Pseu 1231 [15]: 15 mm

CC(=O)O[C@@H]1/C=C(C)/C=C/CNC(=O)/C=C/[C@@H](C)[C@@H](C(C)C)OC(=O)C2=CCCN2C(=O)c2coc(n2)CC(=O)C1 [Example 2]
zone of inhibition at 20 µg/disc ([1]; Micrococcus luteus, ATCC9341, 18 h, @ 20 g/disc, read-out: Inhibition zone diameter, Micr 1101): 21 mm | MIC ([1]; Micrococcus luteus, ATCC9341, 18 h): 3.24 µM (≈ 1.84 µg/mL) | zone of inhibition at 2.5 µg/disc ([1]; Micrococcus luteus, ATCC9341, 2.50 μg/disc, 25° C., ~18 hours, read-out: Mean of triplicate zone size versus Micrococcus luteus): 7 mm | zone of inhibition at 5 µg/disc ([1]; Micrococcus luteus, ATCC9341, 5.00 μg/disc, 25° C., ~18 hours, read-out: Mean of triplicate zone size versus Micrococcus luteus): 14 mm | zone of inhibition at 10 µg/disc ([1]; Micrococcus luteus, ATCC9341, 10.0 μg/disc, 25° C., ~18 hours, read-out: Mean of triplicate zone size versus Micrococcus luteus): 18 mm | zone of inhibition at 20 µg/disc ([1]; Micrococcus luteus, ATCC9341, 20.0 μg/disc, 25° C., ~18 hours, read-out: Mean of triplicate zone size versus Micrococcus luteus): 21 mm | A.R. = agonist ratio = IC50([3H]L365,260)/IC50([125I]CCK) [2]: > 25 | percentage in parentheses beside >3.0, [3H]L-365,260 (inhibition at top concentration, not defined) ([2]; beside IC50 >3.0): 21% | IC50 [2]: > 3 µM | zone of inhibition at 20 µg/disc ([3]; @ 20 g/disc, read-out: Inhibition zone diameter, Sta 108): 11 mm | IC50 (CCK-A (rat pancreas) [4]): > 3 µM | zone of inhibition at 20 µg/disc ([5]; @ 20 g/disc): 0 mm | zone of inhibition at 20 µg/disc ([6]; Escherichia coli, 18 h, read-out: Inhibition zone diameter, Coli 1418): 0 mm | zone of inhibition at 20 µg/disc ([7]; @ 20 g/disc): 0 mm | IC50 (CCK-A (rat pancreas) [8]): > 3 µM | IC50 [9]: 0.7 µM | zone of inhibition at 20 µg/disc ([10]; @ 20 g/disc): 0 mm | zone of inhibition at 20 µg/disc (Bacillus sp. (Mb 633); Bacillus, 18 h, read-out: Inhibition zone diameter, Baci 633): 0 mm | zone of inhibition at 20 µg/disc ([11]; @ 20 g/disc, read-out: Inhibition zone diameter, Str 2875): 0 mm | zone of inhibition at 20 µg/disc ([12]; @ 20 g/disc, read-out: Inhibition zone diameter, Cory 261): 13 mm | zone of inhibition at 20 µg/disc ([13]; @ 20 g/disc, read-out: Inhibition zone diameter, Sta 2983): 0 mm | zone of inhibition at 20 µg/disc ([14]; @ 20 g/disc, read-out: Inhibition zone diameter, Str 2820): 0 mm | zone of inhibition at 20 µg/disc ([15]; Stutzerimonas stutzeri, ATCC11607, 18 h, read-out: Inhibition zone diameter, Pseu 1231): 0 mm
